# Test results: ChEMBL document CHEMBL1201862, “PubChem BioAssay data set” (2004)
#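 Assay format: 96-well plates, 48-hour exposure. At the GI50, growth is halved.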 Activity calls are given as the source filed them. Rule as the data show it: active = GI50 up to about 1.1 µM and inactive = higher.
# How the values were obtained:
# Assay in all cases: NCI-60 cell line screen, 48 h
# [1] = test system: UACC-62
# [2] = test system: RPMI-8226
# [3] = test system: HL-60
# [4] = test system: UO-31
# [5] = test system: SR
# [6] = test system: NCI-H522
# [7] = test system: NCI-H23
# [8] = test system: XF498
# [9] = test system: A498
# [10] = test system: SNB-78
# [11] = test system: LXFL 529
# [12] = test system: SF-268
# [13] = test system: SK-MEL-28
# [14] = test system: DLD-1
# [15] = test system: ACHN
# [16] = test system: SF-539
# [17] = test system: HT-29
# [18] = test system: NCI-H226
# [19] = test system: SK-MEL-2
# [20] = test system: IGROV-1
# [21] = test system: OVCAR-5
# [22] = test system: M14
# [23] = test system: SK-MEL-5
# [24] = test system: UACC-257
# [25] = test system: LOX IMVI
# [26] = test system: HOP-62
# [27] = test system: NCI-H460
# [28] = test system: M19-MEL
# [29] = test system: TK-10
# [30] = test system: SK-OV-3
# [31] = test system: U-251
# [32] = test system: DMS-114
# [33] = test system: KM12
# [34] = test system: Malme-3M
# [35] = test system: DMS-273
# [36] = test system: HOP-92
# [37] = test system: SW-620
# [38] = test system: SN12C
# [39] = test system: OVCAR-4
# [40] = test system: RXF 393
# [41] = test system: HOP-18
# [42] = test system: RXF 631
# [43] = test system: SF-295
# [44] = test system: OVCAR-8
# [45] = test system: OVCAR-3
# [46] = test system: CAKI-1
# [47] = test system: SNB-75
# [48] = test system: EKVX
# [49] = test system: A549
# [50] = test system: 786-0
# [51] = test system: K562
# [52] = test system: MOLT-4
# [53] = test system: HCT-116
# [54] = test system: SNB-19
# [55] = test system: CCRF-CEM
# [56] = test system: COLO 205
# [57] = test system: HCC 2998
# [58] = test system: KM-20L2
# [59] = test system: HCT-15
smiles,measurement,setting,value
CC1(C)O/C(=C\c2ccccc2)C(=O)/C(=C/c2ccccc2)O1,GI50,[1],25.8 µM (inactive)
same,GI50,[2],16.3 µM (inactive)
same,GI50,[3],9.25 µM (inactive)
same,GI50,[4],19.1 µM (inactive)
same,GI50,[5],20.5 µM (inactive)
same,GI50,[6],3.4 µM (inactive)
same,GI50,[7],20 µM (inactive)
same,GI50,[8],18.5 µM (inactive)
same,GI50,[9],> 100 µM (inactive)
same,GI50,[10],38.5 µM (inactive)
same,GI50,[11],20.4 µM (inactive)
same,GI50,[12],57.4 µM (inactive)
same,GI50,[13],50.4 µM (inactive)
same,GI50,[14],42.3 µM (inactive)
same,GI50,[15],33.8 µM (inactive)
same,GI50,[16],67 µM (inactive)
same,GI50,[17],29.4 µM (inactive)
same,GI50,[18],17.7 µM (inactive)
same,GI50,[19],18.4 µM (inactive)
same,GI50,[20],51.4 µM (inactive)
same,GI50,[21],14.7 µM (inactive)
same,GI50,[22],34.4 µM (inactive)
same,GI50,[23],14.4 µM (inactive)
same,GI50,[24],22.5 µM (inactive)
same,GI50,[25],28.6 µM (inactive)
same,GI50,[26],74.8 µM (inactive)
same,GI50,[27],59.6 µM (inactive)
same,GI50,[28],28.6 µM (inactive)
same,GI50,[29],44.2 µM (inactive)
same,GI50,[30],72.6 µM (inactive)
same,GI50,[31],28.4 µM (inactive)
same,GI50,[32],17.3 µM (inactive)
same,GI50,[33],53.8 µM (inactive)
same,GI50,[34],38 µM (inactive)
same,GI50,[35],42.6 µM (inactive)
same,GI50,[36],29.9 µM (inactive)
same,GI50,[37],55.1 µM (inactive)
same,GI50,[38],47.6 µM (inactive)
same,GI50,[39],56.6 µM (inactive)
same,GI50,[40],13.9 µM (inactive)
same,GI50,[41],> 100 µM (inactive)
same,GI50,[42],33.8 µM (inactive)
same,GI50,[43],44.9 µM (inactive)
same,GI50,[44],45.2 µM (inactive)
same,GI50,[45],27.1 µM (inactive)
same,GI50,[46],55.3 µM (inactive)
same,GI50,[47],31.6 µM (inactive)
same,GI50,[48],37.9 µM (inactive)
same,GI50,[49],23.3 µM (inactive)
same,GI50,[50],37.8 µM (inactive)
same,GI50,[51],27 µM (inactive)
same,GI50,[52],14.7 µM (inactive)
same,GI50,[53],26.4 µM (inactive)
same,GI50,[54],47.4 µM (inactive)
same,GI50,[55],15.8 µM (inactive)
same,GI50,[56],43.3 µM (inactive)
O=C(NC1CCCCC1)NC12CC3CC(CC(F)(C3)C1)C2,GI50,[1],> 100 µM (inactive)
same,GI50,[2],> 100 µM (inactive)
same,GI50,[3],> 100 µM (inactive)
same,GI50,[4],55.3 µM (inactive)
same,GI50,[57],> 100 µM (inactive)
same,GI50,[6],> 100 µM (inactive)
same,GI50,[7],> 100 µM (inactive)
same,GI50,[8],> 100 µM (inactive)
same,GI50,[9],> 100 µM (inactive)
same,GI50,[10],> 100 µM (inactive)
same,GI50,[11],> 100 µM (inactive)
same,GI50,[13],> 100 µM (inactive)
same,GI50,[14],> 100 µM (inactive)
same,GI50,[15],> 100 µM (inactive)
same,GI50,[16],> 100 µM (inactive)
same,GI50,[17],> 100 µM (inactive)
same,GI50,[19],> 100 µM (inactive)
same,GI50,[20],> 100 µM (inactive)
same,GI50,[21],> 100 µM (inactive)
same,GI50,[22],> 100 µM (inactive)
same,GI50,[23],> 100 µM (inactive)
same,GI50,[24],> 100 µM (inactive)
same,GI50,[25],> 100 µM (inactive)
same,GI50,[26],> 100 µM (inactive)
same,GI50,[27],> 100 µM (inactive)
same,GI50,[28],> 100 µM (inactive)
same,GI50,[29],85.3 µM (inactive)
same,GI50,[30],> 100 µM (inactive)
same,GI50,[31],> 100 µM (inactive)
same,GI50,[32],> 100 µM (inactive)
same,GI50,[33],> 100 µM (inactive)
same,GI50,[34],> 100 µM (inactive)
same,GI50,[35],> 100 µM (inactive)
same,GI50,[36],54.5 µM (inactive)
same,GI50,[37],> 100 µM (inactive)
same,GI50,[58],> 100 µM (inactive)
same,GI50,[40],> 100 µM (inactive)
same,GI50,[42],> 100 µM (inactive)
same,GI50,[44],> 100 µM (inactive)
same,GI50,[45],> 100 µM (inactive)
same,GI50,[47],40.4 µM (inactive)
same,GI50,[48],57.7 µM (inactive)
same,GI50,[49],> 100 µM (inactive)
same,GI50,[50],> 100 µM (inactive)
same,GI50,[51],> 100 µM (inactive)
same,GI50,[52],> 100 µM (inactive)
same,GI50,[53],> 100 µM (inactive)
same,GI50,[54],> 100 µM (inactive)
same,GI50,[55],> 100 µM (inactive)
same,GI50,[56],> 100 µM (inactive)
CN(C)NC(=O)/C(=C/c1ccc(Cl)cc1)NC(=O)c1ccccc1,GI50,[1],> 100 µM (inactive)
same,GI50,[2],> 100 µM (inactive)
same,GI50,[3],34.4 µM (inactive)
same,GI50,[4],57.1 µM (inactive)
same,GI50,[5],39.9 µM (inactive)
same,GI50,[57],> 100 µM (inactive)
same,GI50,[6],40.7 µM (inactive)
same,GI50,[7],> 100 µM (inactive)
same,GI50,[8],> 100 µM (inactive)
same,GI50,[9],> 100 µM (inactive)
same,GI50,[11],> 100 µM (inactive)
same,GI50,[12],> 100 µM (inactive)
same,GI50,[13],> 100 µM (inactive)
same,GI50,[14],44.9 µM (inactive)
same,GI50,[15],> 100 µM (inactive)
same,GI50,[16],> 100 µM (inactive)
same,GI50,[17],> 100 µM (inactive)
same,GI50,[18],> 100 µM (inactive)
same,GI50,[19],> 100 µM (inactive)
same,GI50,[20],> 100 µM (inactive)
same,GI50,[21],> 100 µM (inactive)
same,GI50,[22],> 100 µM (inactive)
same,GI50,[59],32 µM
same,GI50,[23],> 100 µM (inactive)
same,GI50,[24],> 100 µM (inactive)
same,GI50,[25],48.3 µM (inactive)
same,GI50,[26],> 100 µM (inactive)
same,GI50,[27],69.3 µM (inactive)
same,GI50,[28],> 100 µM (inactive)
same,GI50,[29],> 100 µM (inactive)
same,GI50,[30],> 100 µM (inactive)
same,GI50,[31],> 100 µM (inactive)
same,GI50,[33],> 100 µM (inactive)
same,GI50,[34],> 100 µM (inactive)
same,GI50,[35],29.4 µM (inactive)
same,GI50,[36],> 100 µM (inactive)
same,GI50,[58],> 100 µM (inactive)
same,GI50,[38],> 100 µM (inactive)
same,GI50,[39],> 100 µM (inactive)
same,GI50,[40],> 100 µM (inactive)
same,GI50,[41],> 100 µM (inactive)
same,GI50,[42],55.3 µM (inactive)
same,GI50,[43],> 100 µM (inactive)
same,GI50,[44],> 100 µM (inactive)
same,GI50,[45],> 100 µM (inactive)
same,GI50,[46],> 100 µM (inactive)
same,GI50,[47],78 µM (inactive)
same,GI50,[48],> 100 µM (inactive)
same,GI50,[49],> 100 µM (inactive)
same,GI50,[50],> 100 µM (inactive)
same,GI50,[51],85.3 µM (inactive)
same,GI50,[52],> 100 µM (inactive)
same,GI50,[53],> 100 µM (inactive)
same,GI50,[54],> 100 µM (inactive)
same,GI50,[55],> 100 µM (inactive)
same,GI50,[56],45.2 µM (inactive)
